pIC50: −log10 of the molar value. Counter-ions that a name gives are not always drawn.
Columns and labels:
[1] = target: catalytic domain (JH1, amino acids 826-1132) of human JAK2 (Homo sapiens (Human), UniProt O60674); test: JAK2 LanthaScreen JH1 Binding Assay; details: JAK2 JH1 1.5 nM, 50 nM tracer, 2 hours at 25° C.; read-out: JH1BIND IC50
Method: Example A. JAK2 LanthaScreen JH1 Binding Assay
(§1) JAK2 JH1 binding assay utilizes catalytic domain (JH1, amino acids 826-1132) of human JAK2 expressed as N-terminal FLAG-tagged, biotinylated protein in a baculovirus expression system (Carna Biosciences, Product #08-445-20N). The assay was conducted in black 384-well polystyrene plates in a final reaction volume of 20 μL. JAK2 JH1 (1.5 nM) was incubated with compounds (100 nL serially diluted in DMSO) in the presence of 50 nM fluorescent JAK2-JH1 tracer and 0.5 nM Streptavidin-Tb cryptate (Cisbio Part #610SATLB) in assay buffer (50 mM Tris, pH=7.5, 10 mM MgCl2, 0.01% Brij-35, 0.1% BSA, 1 mM EGTA, 5% Glycerol and 5 mM DTT). Non-specific binding was accessed in the presence of 2 mM ATP. After incubation for 2 hours at 25° C., LanthaScreen signals were read on a PHERAstar FS plate reader (BMG LABTECH). Data was analyzed with IDBS XLfit and GraphPad Prism 5.0 software using a four parameter dose response curve to determine IC50 for each compound.

[2] = target: pseudo-kinase domain (JH2) of human Wild Type JAK2 (Homo sapiens (Human), UniProt O60674, F794H/W659A/W777A); test: JAK2 LanthaScreen JH2-WT Binding Assay; details: JAK2 JH2-WT 0.145 nM, 50 nM tracer, 1 hour at 25° C.; read-out: JH2BIND_WT IC50
Chain of pseudo-kinase domain (JH2) of human Wild Type JAK2 (O60674 536-812 W659A/W777A/F794H): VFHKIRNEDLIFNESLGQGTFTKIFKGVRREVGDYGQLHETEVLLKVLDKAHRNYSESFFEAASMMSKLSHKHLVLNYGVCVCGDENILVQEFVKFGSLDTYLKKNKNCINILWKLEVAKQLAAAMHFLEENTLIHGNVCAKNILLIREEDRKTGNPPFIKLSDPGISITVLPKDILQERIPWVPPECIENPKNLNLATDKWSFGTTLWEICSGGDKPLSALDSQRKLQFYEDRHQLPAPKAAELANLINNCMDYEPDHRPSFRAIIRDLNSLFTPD
Method: Example B. JAK2 LanthaScreen JH2-WT Binding Assay
as §1, with “The” for “JAK2 JH1 binding assay utilizes catalytic domain (JH1, amino acids 826-1132) of human JAK2 expressed as N-terminal FLAG-tagged, biotinylated protein in a baculovirus expression system (Carna Biosciences, Product #08-445-20N). The”, “JH2-WT (0.145” for “JH1 (1.5”, “Fluorescent JAK2-JH2 Tracer (MedChem Express Catalog #HY-102055)” for “fluorescent JAK2-JH1 tracer”, “0.25” for “0.5”, “1 hour” for “2 hours”

[3] = target: pseudo-kinase domain (JH2) of human V617F mutant JAK2 (Homo sapiens (Human), UniProt O60674, F794H/V617F/W659A/W777A); test: JAK2 LanthaScreen JH2-V617F Binding Assay; details: JAK2 JH2-V617F 0.26 nM, 50 nM tracer, 1 hour at 25° C.; read-out: JH2BINDING_V617F IC50
Chain of pseudo-kinase domain (JH2) of human V617F mutant JAK2 (O60674 536-812 V617F/W659A/W777A/F794H): as the sequence (O60674 536-812 W659A/W777A/F794H) above, with V82F counted along it
Method: The assay was conducted in black 384-well polystyrene plates in a final reaction volume of 20 μL. […] Non-specific binding was accessed in the presence of 2 mM ATP. After incubation for 1 hour at 25° C., LanthaScreen signals were read on a PHERAstar FS plate reader (BMG LABTECH). Data was analyzed with IDBS XLfit and GraphPad Prism 5.0 software using a four parameter dose response curve to determine IC50 for each compound.

[4] = target: catalytic domain (JH1, amino acids 808-1132) of human JAK2 (Homo sapiens (Human), UniProt O60674); test: JAK2 HTRF Enzyme Activity Assay; assay type: biochemical; details: ATP 30 μM, 60 minutes at 25° C.; read-out: ENZ 30UMATP IC50
Chain of catalytic domain (JH1, amino acids 808-1132) of human JAK2 (O60674 808-1132): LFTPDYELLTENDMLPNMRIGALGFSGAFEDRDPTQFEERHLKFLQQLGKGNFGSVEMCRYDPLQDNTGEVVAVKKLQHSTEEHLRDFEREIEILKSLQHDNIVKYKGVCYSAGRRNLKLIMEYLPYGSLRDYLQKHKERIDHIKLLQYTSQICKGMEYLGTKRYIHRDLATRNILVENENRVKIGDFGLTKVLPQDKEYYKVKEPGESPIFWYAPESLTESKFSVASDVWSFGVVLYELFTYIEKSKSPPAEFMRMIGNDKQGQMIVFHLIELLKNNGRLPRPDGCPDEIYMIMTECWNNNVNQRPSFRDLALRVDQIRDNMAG
Method: Example D. JAK2 HTRF Enzyme Activity Assay
JAK2 enzyme activity assays utilize catalytic domain (JH1, amino acids 808-1132) of human JAK2 expressed as N-terminal His-tagged protein in a baculovirus expression system (BPS Bioscience, Catalog #40450). The assays was conducted in black 384-well polystyrene plates in a final reaction volume of 20 μL. JAK2 (0.015 nM) was incubated with compounds (100 nL serially diluted in DMSO) in the presence of ATP (30 μM or 1 mM) and 500 nM Biotin-labeled […] (SEQ ID NO.: 1) peptide (BioSource International, custom synthesis) in assay buffer (50 mM Tris, pH=7.5, 10 mM MgCl2, 0.01% Brij-35, 0.1% BSA, 1 mM EGTA, 5% Glycerol and 5 mM DTT) for 60 minutes at 25° C. The reactions were stopped by the addition of 10 μL of detection buffer (50 mM Tris, pH 7.8, 0.5 mg/mL BSA, 150 mM NaCl), supplemented with EDTA, LANCE Eu-W1024 anti-phosphotyrosine (PY20), (PerkinElmer, Catalog #AD0067) and Streptavidin SureLight APC (PerkinElmer Catalog #CR130-100), for a final concentration of 15 mM, 1.5 nM and 75 nM, respectively. HTRF signals were read after 30 minutes incubation at room temperature on a PHERAstar FS plate reader (BMG LABTECH). Data was analyzed with IDBS XLfit and GraphPad Prism 5.0 software using a four parameter dose response curve to determine IC50 for each compound.

Chain of catalytic domain (JH1, amino acids 826-1132) of human JAK2 (O60674 826-1132): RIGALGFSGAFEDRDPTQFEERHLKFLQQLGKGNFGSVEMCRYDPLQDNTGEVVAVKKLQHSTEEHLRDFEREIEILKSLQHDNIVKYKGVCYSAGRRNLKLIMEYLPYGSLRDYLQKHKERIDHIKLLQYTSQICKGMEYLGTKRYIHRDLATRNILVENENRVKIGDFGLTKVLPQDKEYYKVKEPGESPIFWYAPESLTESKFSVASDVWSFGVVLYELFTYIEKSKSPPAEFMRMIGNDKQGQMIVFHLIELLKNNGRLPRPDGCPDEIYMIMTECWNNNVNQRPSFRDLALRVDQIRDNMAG

Row | Compound | pIC50 [1] | pIC50 [2] | pIC50 [3] | pIC50 [4]
1 | COc1c(Nc2cc(NC(=O)C3CC3)nc3cc[nH]c(=O)c23)cccc1-c1cnn(C2CCOCC2)c1 [Example 5, N-(4-((2-Methoxy-3-(1-(tetrahydro-2H-pyran-4-yl)-1H-pyrazol-4-yl)phenyl)amino)-5-oxo-5,6-dihydro-1,6-naphthyridin-2-yl)cyclopropanecarboxamide Trifluoroacetic Acid Salt] | < 5.00 | ≥ 7.00 | ≥ 7.00 | < 5.00
2 | CS(=O)(=O)c1c(Nc2cc(NC(=O)C3CC3)nc3cc[nH]c(=O)c23)cccc1-c1cnn(C2CCOCC2)c1 [Example 13, N-(4-((2-(Methylsulfonyl)-3-(1-(tetrahydro-2H-pyran-4-yl)-1H-pyrazol-4-yl)phenyl)amino)-5-oxo-5,6-dihydro-1,6-naphthyridin-2-yl)cyclopropanecarboxamide Trifluoroacetic Acid Salt] | < 5.00 | 5.00 to 6.00 | 5.00 to 6.00 | < 5.00
3 | COc1c(Nc2cc(NC(=O)C3CC3)nc3ccn(C)c(=O)c23)cccc1-c1cnc(C2CCOCC2)s1 [Example 10, N-(4-((2-Methoxy-3-(2-(tetrahydro-2H-pyran-4-yl)thiazol-5-yl)phenyl)amino)-6-methyl-5-oxo-5,6-dihydro-1,6-naphthyridin-2-yl)cyclopropanecarboxamide Trifluoroacetic Acid Salt] | < 5.00 | 5.00 to 6.00 | 5.00 to 6.00 | < 5.00
4 | COc1c(Nc2cc(NC(=O)C3CC3)nc3cc[nH]c(=O)c23)cccc1C(F)(F)F [Example 14, N-(4-((2-Methoxy-3-(trifluoromethyl)phenyl)amino)-5-oxo-5,6-dihydro-1,6-naphthyridin-2-yl)cyclopropanecarboxamide Trifluoroacetic Acid Salt] | < 5.00 | 6.30 to 7.00 | 6.30 to 7.00 | < 5.00
5 | COc1c(Nc2cc(NC(=O)C3CC3)nc3cc[nH]c(=O)c23)cccc1-c1cnn(C(C)C(N)=O)c1 (centres unmarked) [Example 8, N-(4-((3-(1-(1-Amino-1-oxopropan-2-yl)-1H-pyrazol-4-yl)-2-methoxyphenyl)amino)-5-oxo-5,6-dihydro-1,6-naphthyridin-2-yl)cyclopropanecarboxamide Trifluoroacetic Acid Salt] | 5.00 to 6.00 | ≥ 7.00 | ≥ 7.00 | 6.30 to 7.00
6 | O=C(Nc1cc(Nc2ccccc2OC2CC2)c2c(=O)[nH]ccc2n1)C1CC1 [Example 24, N-(4-((2-Cyclopropoxyphenyl)amino)-5-oxo-5,6-dihydro-1,6-naphthyridin-2-yl)cyclopropanecarboxamide Trifluoroacetic Acid Salt] | 5.00 to 6.00 | 5.00 to 6.00 | 5.00 to 6.00 | 6.00 to 6.30
7 | O=C(Nc1cc(Nc2cccc(Cl)c2-c2cn[nH]c2)c2c(=O)[nH]ccc2n1)C1CC1 [Example 16, N-(4-((3-Chloro-2-(1H-pyrazol-4-yl)phenyl)amino)-5-oxo-5,6-dihydro-1,6-naphthyridin-2-yl)cyclopropanecarboxamide Trifluoroacetic Acid Salt] | 5.00 to 6.00 | 6.00 to 6.30 | 6.00 to 6.30 | 5.00 to 6.00
8 | O=C(Nc1cc(Nc2ccccc2OC(F)F)c2c(=O)[nH]ccc2n1)C1CC1 [Example 20, N-(4-((2-(Difluoromethoxy)phenyl)amino)-5-oxo-5,6-dihydro-1,6-naphthyridin-2-yl)cyclopropanecarboxamide Trifluoroacetic Acid Salt] | 5.00 to 6.00 | 5.00 to 6.00 | 5.00 to 6.00 | 5.00 to 6.00

From US11691971B2, “Naphthyridinone compounds as JAK2 V617F inhibitors” (Incyte Corporation, priority 2020, dated 2023)
